Several values for one entry are separate records, joined by “and”; a condition that tells them apart may be missing. Equal values may be shown once.
Test system: adults with biopsy-confirmed NASH
Experiment: MAESTRO-NASH: lipids, lipoproteins and lipid particles
Format: in vivo, human
Conditions: 100 mg; for ApoB, Least Squares Mean % CFB / ApoB, Least Squares Mean % CFB Difference from PBO / LDL-C, Least Squares Mean % CFB / LDL-C, Least Squares Mean % CFB Difference from PBO: baseline LDL-C >100 mg/dL; for Lp(a), LS mean % CFB / Lp(a), LS mean % CFB difference from PBO: baseline Lp(a) >10 nmol/L; for Triglycerides, LS mean % CFB / Triglycerides, LS mean % CFB difference from PBO: baseline triglycerides >150 mg/dL
Description: Within the study, we provided analyses based on an analysis of covariance (ANCOVA) model after having performed single imputation for LDL-C as described in the statistical analysis plan (SAP). The ANCOVA model estimated least-squares means using treatment and baseline LDL-C as covariate.
To this end, the Week 24 LDL-C assessment and assessments at any visit in which LDL-C is measured (Weeks 4, 12, 16, 20, 24, 28, 32, 36, 40, 44, 48, and 52) that has been impacted by kit shortage at the prior visit (unavailability of […] (IP) during the 4 weeks preceding the visit due to the COVID-19 pandemic as indicated on the electronic case report form (eCRF)), were considered missing and were imputed from an unaffected assessment at surrounding visits or using data from subjects unaffected by this intercurrent event as described in Section 11.2 of the SAP. In summary, single imputation utilizing adjacent and valid […] measurements were imputed.
For missing lipid data that are still missing after the single imputation approach described, those missing lipid data were imputed using the non-missing lipid values (including the singly imputed data) based on missing at random (MAR)-based (MI). When applying the MAR-based […], data were imputed separately by randomized treatment group and baseline stratification factors.

CC(C)c1cc(Oc2c(Cl)cc(-n3nc(C#N)c(=O)[nH]c3=O)cc2Cl)n[nH]c1=O [Resmetirom, 2-(3,5-dichloro-4-((5-isopropyl-6-oxo-1,6-dihydropyridazin-3-yl)oxy)phenyl)-3,5-dioxo-2,3,4,5-tetrahydro-1,2,4-triazine-6-carbonitrile]
Apolipoprotein B level, difference from placebo (wk 24): −20.2 percentage points
Apolipoprotein B level, least-squares mean percent change from baseline (wk 24): −19.8 ± 1.3%
LDL cholesterol level, difference from placebo (wk 24): −16.4 percentage points
LDL cholesterol level, least-squares mean percent change from baseline (wk 24): −16.3% and −16.3 ± 1.7%
Lipoprotein(a) level, difference from placebo (wk 24): −35.1 percentage points
Triglyceride level, difference from placebo (wk 24): −19.1 percentage points
Lipoprotein(a) level, least-squares mean percent change from baseline (wk 24, baseline lipoprotein(a) >10 nmol per liter): −35.9 ± 4.0%
Triglyceride level, least-squares mean percent change from baseline (wk 24, baseline triglyceride >150 mg per deciliter): −21.7 ± 4.3%
ApoB, LS mean % CFB (Week 24): -19.8%
ApoB, LS mean % CFB difference from PBO (Week 24): −20.2%
ApoCIII, Least Squares Mean % CFB (Week 24): −14.1%
ApoCIII, Least Squares Mean % CFB Difference from PBO (Week 24): −22.2%
HDL-C, Least Squares Mean % CFB (Week 24): 2.9%
HDL-C, Least Squares Mean % CFB Difference from PBO (Week 24): 1.2%
LDL-C, LS mean % CFB (Week 24): −16.3%
LDL-C, LS mean % CFB difference from PBO (Week 24): −16.4%
Non-HDL-C, Least Squares Mean % CFB (Week 24): −17.7%
Non-HDL-C, Least Squares Mean % CFB Difference from PBO (Week 24): −17.9%
ApoB, Least Squares Mean % CFB (Week 24): −22.1%
ApoB, Least Squares Mean % CFB Difference from PBO (Week 24): −18.4%
LDL-C, Least Squares Mean % CFB (Week 24): −20.6%
LDL-C, Least Squares Mean % CFB Difference from PBO (Week 24): −14.7%
ApoCIII, Least Squares Mean % CFB (Week 52): −17.1%
ApoCIII, Least Squares Mean % CFB Difference from PBO (Week 52): −26.9%
HDL particle size, Least Squares Mean % CFB (Week 52): 0.40%
HDL particle size, Least Squares Mean % CFB Difference from PBO (Week 52): 0.10%
HDL particles, Least Squares Mean % CFB (Week 52): 2.3%
HDL particles, Least Squares Mean % CFB Difference from PBO (Week 52): 0.69%
HDL-C, Least Squares Mean % CFB (Week 52): 4.6%
HDL-C, Least Squares Mean % CFB Difference from PBO (Week 52): 2.0%
LDL particle size, Least Squares Mean % CFB (Week 52): −0.35%
LDL particle size, Least Squares Mean % CFB Difference from PBO (Week 52): −0.39%
LDL particles, Least Squares Mean % CFB (Week 52): −20.0%
LDL particles, Least Squares Mean % CFB Difference from PBO (Week 52): −19.4%
Large HDL particles, Least Squares Mean % CFB (Week 52): 4.5%
Large HDL particles, Least Squares Mean % CFB Difference from PBO (Week 52): −7.7%
Large LDL particles, Least Squares Mean % CFB (Week 52): 55.6%
Large LDL particles, Least Squares Mean % CFB Difference from PBO (Week 52): −30.8%
Large VLDL and chylomicron particles, Least Squares Mean % CFB (Week 52): −9.1%
Large VLDL and chylomicron particles, Least Squares Mean % CFB Difference from PBO (Week 52): −20.2%
Medium HDL particles, Least Squares Mean % CFB (Week 52): 130.2%
Medium HDL particles, Least Squares Mean % CFB Difference from PBO (Week 52): 65.2%
Medium VLDL particles, Least Squares Mean % CFB (Week 52): −27.4%
Medium VLDL particles, Least Squares Mean % CFB Difference from PBO (Week 52): −143.2%
Non-HDL-C, Least Squares Mean % CFB (Week 52): −22.1%
Non-HDL-C, Least Squares Mean % CFB Difference from PBO (Week 52): −21.7%
Small LDL particles, Least Squares Mean % CFB (Week 52): 6.6%
Small LDL particles, Least Squares Mean % CFB Difference from PBO (Week 52): −15.0%
Small VLDL particles, Least Squares Mean % CFB (Week 52): 26.3%
Small VLDL particles, Least Squares Mean % CFB Difference from PBO (Week 52): −15.3%
VLDL and chylomicron particles, Least Squares Mean % CFB (Week 52): −20.2%
VLDL and chylomicron particles, Least Squares Mean % CFB Difference from PBO (Week 52): −28.4%
VLDL and chylomicron triglycerides, Least Squares Mean % CFB (Week 52): −17.9%
VLDL and chylomicron triglycerides, Least Squares Mean % CFB Difference from PBO (Week 52): −22.8%
VLDL particle size, Least Squares Mean % CFB (Week 52): 3.4%
VLDL particle size, Least Squares Mean % CFB Difference from PBO (Week 52): 1.4%
ApoB, Least Squares Mean % CFB (Week 52): −26.6%
ApoB, Least Squares Mean % CFB Difference from PBO (Week 52): −20.1%
LDL-C, Least Squares Mean % CFB (Week 52): −27.1%
LDL-C, Least Squares Mean % CFB Difference from PBO (Week 52): −17.5%
Lp(a), LS mean % CFB (week 24): −35.9%
Lp(a), LS mean % CFB difference from PBO (week 24): 35.1%
Triglycerides, LS mean % CFB (week 24): −21.7%
Triglycerides, LS mean % CFB difference from PBO (week 24): −19.1%
ApoB, LS mean % CFB (week 52): -22.3%
ApoB, LS mean % CFB difference from PBO (week 52): −22.9%
LDL-C, LS mean % CFB (week 52): −19.5%
LDL-C, LS mean % CFB difference from PBO (week 52): −19.0%
Lp(a), LS mean % CFB (week 52): −37.5%
Lp(a), LS mean % CFB difference from PBO (week 52): −32.4%
Triglycerides, LS mean % CFB (week 52): −28.4%
Triglycerides, LS mean % CFB difference from PBO (week 52): −24.9%

— US12377104B1, “Methods for treating a fatty liver disease” (Madrigal Pharmaceuticals, Inc., priority 2024, dated 2025)
